Reference: US6479487B1, “6, 9-disubstituted 2-[trans-(4-aminocyclohexyl)amino] purines” (Aventis Pharmaceuticals Inc., priority 1998, dated 2002)
Where “and” joins values, the source holds several entries; their conditions need not be identical. Equal entries are not always repeated. Structures can show the parent of a compound that is named as a salt. Where two headings read alike, the source gives them in different places.

Assays:
cdk4/cyclin D1 = target: T1, cdk4/cyclin D1 (Homo sapiens, UniProt P11802); assay: Cyclin-dependent Kinase 4 Assay (cdk4/cyclin D1, GST-Rb substrate); assay type: biochemical; details: cdk4/cyclin D1 insect cell lysate, 10 μM ATP, 30 min at 37° C., several values = separate determinations, read-out: CDK4 Inhibition IC50
T1 construct: made in house; host or cells: Sf9 insect cells (Bac-to-Bac baculovirus, pFastBac)
T1 sequence (P11802 whole entry): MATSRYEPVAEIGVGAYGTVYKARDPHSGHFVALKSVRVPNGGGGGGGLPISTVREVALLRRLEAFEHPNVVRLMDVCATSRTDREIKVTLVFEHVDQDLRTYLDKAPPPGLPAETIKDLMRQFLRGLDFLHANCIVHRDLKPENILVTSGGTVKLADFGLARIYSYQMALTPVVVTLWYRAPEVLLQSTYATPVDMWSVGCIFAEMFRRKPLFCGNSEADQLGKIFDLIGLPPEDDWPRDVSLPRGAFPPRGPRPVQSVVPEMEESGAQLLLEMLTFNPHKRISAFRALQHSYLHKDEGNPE
T1 sequence (P24385 whole entry partner): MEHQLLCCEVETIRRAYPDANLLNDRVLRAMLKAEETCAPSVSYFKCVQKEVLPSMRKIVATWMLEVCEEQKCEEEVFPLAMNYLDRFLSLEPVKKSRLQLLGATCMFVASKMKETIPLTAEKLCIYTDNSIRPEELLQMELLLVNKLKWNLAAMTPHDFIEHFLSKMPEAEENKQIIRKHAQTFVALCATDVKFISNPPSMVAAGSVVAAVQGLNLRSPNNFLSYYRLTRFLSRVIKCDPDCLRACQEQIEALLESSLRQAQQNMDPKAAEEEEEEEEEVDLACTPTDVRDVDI
Method: The IC50 values for cdk4 inhibition were by the following method:
The transformed bacteria were grown overnight to saturation, then diluted in YT broth and incubated at 37° C. for 2 h. The protein was induced by incubation with 0.1 mM isopropylthioglycoside for 3 h. Following sedimentation by centrifugation, the cells were lysed by sonication in STE buffer ([…] NaCl, 10 mM Tris, pH 8.0, 1 mM EDTA) containing 10% sarkosyl. Particulate matter was removed by centrifugation and the lysate was incubated with glutathione-Sepharose at 4° C. The beads were washed with kinase buffer and then quantitation of Coomassie blue-stained proteins separated by SDS-PAGE was performed using a protein standard of known concentration.
The cDNA for human cyclin D1 was cloned by RT PCR using […] from MCF-7 cells. […] Bacmid DNA was used to transfect Sf9 insect cells to produce recombinant virus. Following plaque purification of the virus, the viral preparations were amplified until high titer stocks were acheived.
Lysates were prepared by lysis of Sf9 cells coinfected with cdk4 and cyclin D1 in 50 mM HEPES, pH 7.5, 10 mM MgCl2, 1 mM DTT, 0.1 mM phenylmethylsulfonyl fluoride, 5 μg/ml aprotinin, and 5 μg/ml leupeptin using a PARR bomb under 500 p.s.i nitrogen pressure for 5 min at 4° C. Insoluble material was sedimented at 10,000×g for 20 min at 4° C. Glycerol was added to the supernatant to 10% and stored at −80° C. in aliquots.
Pre-wet Millipore Multiscreen 96-well filter plates (0.65 μm Durapore filters) with 200 μl kinase buffer (50 mM HEPES, pH 7.5, 10 mM MgCl2, 1 mM EGTA). GST-Rb (0.5 μg) bound to glutathione-Sepharose beads is added in 50 μl per well and the solution removed by application of vacuum. […] Add 0.1 μg cdk4/cyclin D1 (insect cell lysate) to initiate assay. Incubate 30 min at 37° C. Terminate reaction by filtration on Millipore Vacuum Manifold. Wash four times with TNEN (20 mM Tris, pH 8.0, 100 mM Na Cl, 1 mM EDTA, 0.5% nonidet P-40). After drying the plates at room temperature, the filter plates were placed in adapter plates (Packard) and 40 μl of Microscint-O® (Packard) was added to each well. Top Seal A film was used to cover the plates before counting in a Top Count Scintillation Counter.

MDA-MB-231 = assay: In vitro tumor cell proliferation, MDA-MB-231; assay type: cell-based, human; details: sulforhodamine B or CyQUANT assay, many values given with an undefined *, read-out: In vitro Tumor Cell Proliferation (IC50, μM) Breast MDA-MB-231
Method: (§1) The proliferation of tumor cells was measured using a sulforhodamine B assay as described in Skehan, P., et al., J. Natl. Cancer Inst. […] Tumor cells were harvested with trypsin-EDTA, cells that excluded trypan blue were counted, added to 96-well plates and incubated overnight at 37° C. Drug was added to the wells following dilution in culture medium. Three days later, the medium was removed and replenished with medium containing fresh drug and incubated an additional 4 days. The cells were then fixed with 0.1 ml 10% trichloroacetic acid for 60 min at 4° C. The plates were rinsed five times with tap water, air-dried and stained for 30 min with 0.4% sulforhodamine B in 1% acetic acid and air-dried.
(§2) Alternatively, the CyQUANT cell proliferation assay was used to quantitate cell proliferation.
(§3) Alternatively, the CyQUANT cell proliferation assay was used to quantify tumor cell proliferation. Tumor cells were harvested with trypsin-EDTA, cells that excluded trypan blue were counted, added to 96-well plates and incubated overnight at 37° C. Drug was added to the wells following dilution in culture medium. Three days later the medium was removed and the plates frozen at −80° C. for at least 30 minutes.
MDA-MB-23 1 is a human breast adenocarcinoma, hormone-independent (HTB 26);

MDA-MB-435 = assay: In vitro tumor cell proliferation, MDA-MB-435; assay type: cell-based; details: values given with an undefined *, read-out: In vitro Tumor Cell Proliferation (IC50, μM) Breast MDA-MB-435
Method: as §1, §2, §3

HT-29 = assay: In vitro tumor cell proliferation, HT-29; assay type: cell-based, human; details: many values given with an undefined *, read-out: In vitro Tumor Cell Proliferation (IC50, μM) Colon HT-29
Method: as §1, §2, §3
HT-29 is a human colon adenocarcinoma, moderately well-differentiated grade II (HTB 38);

Colo-205 = assay: In vitro tumor cell proliferation, Colo-205; assay type: cell-based; details: values given with an undefined *, read-out: In vitro Tumor Cell Proliferation (IC50, μM) Colon Colo-205
Method: as §1, §2, §3

A549 = assay: In vitro tumor cell proliferation, A549; assay type: cell-based, human; details: many values given with an undefined *, read-out: In vitro Tumor Cell Proliferation (IC50, μM) Lung A549
Method: as §1, §2, §3

DMS-114 = assay: In vitro tumor cell proliferation, DMS-114; assay type: cell-based, human; details: many values given with an undefined *, read-out: In vitro Tumor Cell Proliferation (IC50, μM) Lung DMS-114
Method: DMS-1 14: human small cell lung carcinoma;
as §1, §2, §3

PC-3 = assay: In vitro tumor cell proliferation, PC-3; assay type: cell-based, human; details: many values given with an undefined *, read-out: In vitro Tumor Cell Proliferation (IC50, μM) Prostate PC-3
Method: as §1, §2, §3

DU145 = assay: In vitro tumor cell proliferation, DU145; assay type: cell-based, human; details: many values given with an undefined *, read-out: In vitro Tumor Cell Proliferation (IC50, μM) Prostate DU145
Method: as §1, §2, §3

cdk2/cyclin E = target: T2, cdk2/cyclin E (Homo sapiens, UniProt P24941); assay: Cyclin-Dependent Kinase 2 Assay (cdk2/cyclin E, GST-Rb substrate); assay type: biochemical; details: recombinant cdk2/cyclin E, 10 μM ATP, 30 min at 30° C., several values in a cell = separate determinations, read-out: CDK-2 Inhibition IC50
T2 construct: made in house; host or cells: insect cells (baculovirus co-infection)
Method: Substrate: GST-Rb as described above for cdk4/cyclin D1
Assay conditions for cdk2/cyclin E were identical to those for cdk4/cyclin D1 including the substrate. The concentration of recombinant cdk2/cyclin E in the assay was 0.1 μg per 100 μl assay. Incubation was for 30 min at 30° C.

[1] = Homo sapiens, MDA-MB-231, MDA-MB-231

Row | Compound | IC50 (MDA-MB-231; MDA-MB-231, trihydrochloride) | IC50 (MDA-MB-435; MDA-MB-435, trihydrochloride) | IC50 (HT-29; HT-29, trihydrochloride) | IC50 (Colo-205; Colo-205, trihydrochloride) | IC50 (A549; A549, trihydrochloride) | IC50 (DMS-114; DMS-114, trihydrochloride) | IC50 (PC-3; PC-3, trihydrochloride) | IC50 (DU145; DU145, trihydrochloride) | IC50 (cdk2/cyclin E) | IC50 (cdk4/cyclin D1) | IC50 (MDA-MB-231; MDA-MB-231) | IC50 (MDA-MB-435; MDA-MB-435) | IC50 (Colo-205; Colo-205) | IC50 (DU145; DU145) | also measured
1 | 2-[Trans-(4-aminocyclohexyl)amino]-6-[4-[1-(2,5-difluorobenzyl)]piperidinylamino-9-cyclopentylpurine trihydrochloride [Example 147-f] | 0.41 µM and 0.38 µM | 0.5 µM and 0.49 µM | 0.4 µM and 0.34 µM | 0.31 µM and 0.25 µM | 0.3 µM | 0.67 µM and 0.36 µM | 0.36 µM and 0.45 µM | 0.31 µM and 0.29 µM | – | – | – | – | – | – | IC50 (cdk4/cyclin D1; trihydrochloride): 1100 nM and 2100 nM
2 | NC1CCC(Nc2nc(NC(c3ccc(Cl)cc3)C3CC3)c3ncn(C4CCCC4)c3n2)CC1 (racemic) [Example 24, (+/−)-2-[Trans-(4-aminocyclohexyl)amino]-6-[(α-cyclopropyl-4-chlorobenzyl)amino]-9-cyclopentylpurine dihydrochloride] | – | – | – | – | – | – | – | – | 27.1 µM | 4600 nM and 10000 nM | – | – | – | – | –
3 | COc1cccc(OC)c1CNc1nc(N[C@H]2CC[C@H](N)CC2)nc2c1ncn2C1CCCC1 [Example 4, 2-[Trans-(4-aminocyclohexyl)amino]-6-[(2,6-dimethoxybenzyl)amino]-1-9-cyclopentylpurine dihydrochloride] | – | – | – | – | – | – | – | – | 19.4 µM | 46000 nM and > 100000 nM | – | – | – | – | –
4 | N[C@H]1CC[C@H](Nc2nc(NNc3c(Cl)cccc3Cl)c3ncn(C4CCCC4)c3n2)CC1 [Example 20, 2-[Trans-(4-aminocyclohexyl)amino]-6-[2,6-dichlorophenylhydrazino]-9-cyclopentylpurine dihydrochloride] | – | – | – | – | – | – | – | – | 0.497 µM | – | – | – | – | – | IC50 (MDA-MB-231; [1]): 4.8 µM; IC50 (MDA-MB-435; Homo sapiens, MDA-MB-435, MDA-MB-435): 11 µM; IC50 (HT-29; Homo sapiens, HT-29, HT-29): 7.6 µM; IC50 (A549; A549, dihydrochloride): 4.8 µM; IC50 (A549; Homo sapiens, A549, A549): 5.6 µM; IC50 (DMS-114; Homo sapiens, DMS-114, DMS-114): 7.5 µM; IC50 (PC-3; Homo sapiens, PC-3, PC-3): 7.9 µM; IC50 (DU145; Homo sapiens, DU-145, DU145): 6.5 µM
5 | COc1ccc(CN2CCC(Nc3nc(N[C@H]4CC[C@H](N)CC4)nc4c3ncn4C3CCCC3)CC2)cc1 [Example 39, 2-[Trans-(4-aminocyclohexyl)amino]-6-[4-(1-(4-methoxybenzyl))piperidinylamino]-9-cyclopentylpurine] | – | – | – | – | – | – | – | – | – | – | 0.18 µM | 0.23 µM and 0.35 µM | 0.28 µM and 0.17 µM | 0.28 µM and 0.27 µM | IC50 (HT-29; HT-29): 0.32 µM and 0.22 µM; IC50 (A549; A549): 0.17 µM; IC50 (DMS-114; DMS-114): 0.32 µM and 0.22 µM; IC50 (PC-3; PC-3): 0.28 µM and 0.36 µM
6 | COc1cccc(CN2CCC(Nc3nc(N[C@H]4CC[C@H](N)CC4)nc4c3ncn4C3CCCC3)CC2)c1 [Example 41, 2-[Trans-(4-aminocyclohexyl)amino]-6-[4-(1-(3-methoxybenzyl))piperidinylamino]-9-cyclopentylpurine] | – | – | – | – | – | – | – | – | – | 750 nM and 1400 nM | 0.29 µM and 0.32 µM | 0.35 µM and 0.36 µM | 0.25 µM and 0.21 µM | 0.29 µM and 0.23 µM | IC50 (HT-29; HT-29): 0.32 µM; IC50 (A549; A549): 0.19 µM; IC50 (DMS-114; DMS-114): 0.38 µM and 0.29 µM; IC50 (PC-3; PC-3): 0.27 µM and 0.42 µM
7 | COc1cc(CNc2nc(NC3CCC(N)CC3)nc3c2ncn3C2CCCC2)cc(OC)c1OC (stereo not shown) [Example 147-ae] | – | – | – | – | – | – | – | – | 0.14 µM | – | 6.6 µM | 11 µM | 8.6 µM | 6.7 µM | IC50 (MDA-MB-231; [1]): 6.5 µM; IC50 (HT-29; Homo sapiens, HT-29, HT-29): 10 µM; IC50 (Colo-205; Homo sapiens, COLO 205, Colo-205): 11 µM; IC50 (A549; Homo sapiens, A549, A549): 11 µM; IC50 (DMS-114; Homo sapiens, DMS-114, DMS-114): 8.7 µM; IC50 (DU145; Homo sapiens, DU-145, DU145): 12 µM
8 | Cc1cccc(CN2CCC(Nc3nc(N[C@H]4CC[C@H](N)CC4)nc4c3ncn4C3CCCC3)CC2)c1 [Example 147-i, 2-[Trans-(4-aminocyclohexyl)amino]-6-[4-[1-(3-methylbenzyl)]piperidinylamino]-9-cyclopentylpurine trihydrochloride] | 0.3 µM and 0.34 µM | 0.3 µM and 0.45 µM | 0.33 µM | 0.24 µM and 0.27 µM | 0.17 µM and 0.18 µM | 0.39 µM and 0.26 µM | 0.23 µM and 0.41 µM | 0.23 µM | – | – | – | – | – | – | –
9 | COc1ccccc1CN1CCC(Nc2nc(N[C@H]3CC[C@H](N)CC3)nc3c2ncn3C2CCCC2)CC1 [Example 147-q, 2-[Trans-(4-aminocyclohexyl)amino]-6-[4-1-(2-methoxybenzyl)]piperidinylamino-9-cyclopentylpurine trihydrochloride] | 0.19 µM and 0.25 µM | 0.36 µM and 0.33 µM | 0.32 µM and 0.38 µM | 0.17 µM and 0.19 µM | 0.18 µM and 0.19 µM | 0.4 µM and 0.21 µM | 0.33 µM and 0.4 µM | 0.29 µM and 0.32 µM | – | – | – | – | – | – | IC50 (cdk4/cyclin D1; trihydrochloride): 690 nM and 1300 nM
